In brackets after ≈: the same amount, converted by molar mass.
Settings: buffer; pH 7.4; 200.0 µM

Structure (SMILES) | solubility kinetic [µg/mL]
O=S(=O)(c1cccs1)N1CCN(c2ccc(F)cc2)CC1 | 9.6 (≈ 29.4 µM)
COc1cc(SC)ccc1C(=O)N1CCc2ccccc21 | 4.5 (≈ 15 µM)
COC(=O)c1ccc2nc(-c3cccc(N)c3)cn2c1 | 33.5 (≈ 125 µM)
O=C(CCNc1ccc(Br)cc1)c1cccc([N+](=O)[O-])c1 | 4.6 (≈ 13.2 µM)
CC1CC(=O)Nc2ccccc2N1C(=O)Nc1ccc(F)cc1 (centres undefined) | > 47
O=C(CC1SCCNC1=O)Nc1ccc(Cl)cc1 (centres undefined) | > 42.7
Cc1ccc(NC(=O)CNC(=O)c2cccs2)nc1 | > 41.3
Cc1cc(C)c2nc(NC(=O)c3ccco3)sc2c1 | 0.4 (≈ 1.47 µM)
COc1cccc(C(=O)OCC(=O)NCC2CCCO2)c1 (centres undefined) | > 44
Cc1c(Cl)cccc1NC(=S)NC1CCCC1 | 7.5 (≈ 27.9 µM)
O=[N+]([O-])C1=CC=C2C(=NC3(CCCCC3)N2O)C1=NCCc1ccccc1 | 1.4 (≈ 3.82 µM)
COc1ccc2oc(C(=O)N3CCN(c4ncccn4)CC3)c(C)c2c1 | 4.8 (≈ 13.6 µM)
O=C(NCc1ccccc1Cl)c1cc2ccccc2oc1=O | < 0.7
O=C(O/N=C1\CCCc2ccccc21)C1CC1 | 28.3 (≈ 123 µM)
CN1CCN(c2ccccc2NC(=O)c2c(F)cccc2F)CC1 | > 49.7
CCC(C(=O)NC1CCCCCC1)c1ccccc1 (centres undefined) | 33.4 (≈ 129 µM)
CC(=O)c1cccc(Nc2cc(C)nc3c(C)cccc23)c1.Cl | > 49
CCOC(=O)c1ccc(Nc2ncccc2[N+](=O)[O-])cc1 | 1 (≈ 3.48 µM)
O=C1CN(C(=O)c2ccc(Cl)nc2)c2ccccc2N1 | 33.3 (≈ 116 µM)
CCOC(=O)C1CCN(C(C)C(=O)c2c[nH]c3ccccc23)CC1 (centres undefined) | > 49.3
CC(C)S(=O)(=O)c1csc(NC(=O)Nc2cccc([N+](=O)[O-])c2)c1Cl | < 0.3
c1ccc(C2CN3CCC2CC3)cc1 (centres undefined) | > 28.1
Cc1nc(N2CCOCC2)[nH]c(=O)c1[N+](=O)[O-] | 33.1 (≈ 138 µM)
CSc1cccc(NC(N)=O)c1 | 25.1 (≈ 138 µM)

Structure (SMILES) | solubility kinetic [µg/mL]
CCOC(=O)c1csc(NC(=O)c2cc3ccccc3o2)n1 | 0.8 (≈ 2.53 µM)
CC(C)CN1C(=O)C(=O)N(CC(=O)c2ccc3c(c2)CCCC3)C1=O | 47.2 (≈ 138 µM)
CC(=O)c1ccc(S(=O)(=O)Nc2ccc(Cl)c(S(=O)(=O)N3CCCC3)c2)cc1 | > 66.4
O=C(CN1N=C(c2ccccc2)CCC1=O)NCc1cccs1 | > 49.1
CC(C)C[C@H](NC(=O)NCCC1=CCCCC1)C(=O)O | 40.9 (≈ 145 µM)
CCN(CC(=O)Nc1ccc(S(=O)(=O)N2CCCC2)cc1)CC(=O)Nc1ccccc1C(F)(F)F | 21.2 (≈ 41.4 µM)
COCCNc1ccc(N2C(=O)CCCC2=O)cc1[N+](=O)[O-] | 45.8 (≈ 149 µM)
CCSc1ncc(Cl)c(C(=O)Nc2ccccc2OC)n1 | < 0.2
Clc1ncn(CCOc2ccccc2)c1Cl | 38.2 (≈ 149 µM)
Cl.O=[N+]([O-])c1ccc(OCC(O)CNC2CCCC2)cc1 (centres undefined) | > 47.5
Cc1ccc(S(=O)(=O)[O-])cc1.Cn1cc[n+](C)c1COc1ccc(C=O)cc1 | > 60.4
O=[N+]([O-])c1ccccc1/C=C/CN1CCCC(CO)C1 (centres undefined) | 33.2 (≈ 120 µM)
Cc1csc(SC(C)C(=O)Nc2ccccc2C)n1 (centres undefined) | > 43.9
COc1ccccc1C(c1c(N)n(C)c(=O)n(C)c1=O)C(C)[N+](=O)[O-] (centres undefined) | > 52.3
COc1ccc(NC(=O)CSc2nc3ccc(OC)cc3[nH]2)cc1 | 6 (≈ 17.5 µM)
CSc1ccc(S(=O)(=O)N2CC(=O)Nc3ccccc32)cc1 | 14.4 (≈ 43.1 µM)
CC(NC(=O)Cc1ccc(Br)cc1)c1ccccc1 (centres undefined) | 9.7 (≈ 30.5 µM)
COc1cc(CC(=O)NCCCc2ccccc2)cc(OC)c1OC | > 51.5
Cc1cc(C(=O)CN2C(=O)NC(C)(c3cc(F)ccc3F)C2=O)c(C)n1C1CC1 (centres undefined) | 48.9 (≈ 122 µM)
Cc1cccc(C)c1NC(=O)COC(=O)[C@@H]1CCCN1C(=O)c1cccs1 | > 58
N[C@@H](Cc1cc(Br)c(O)c(Br)c1)C(=O)O | > 50.8
COc1cccc(N2CCN(C(=O)CSc3ccc(F)cc3)CC2)c1 | 50.2 (≈ 139 µM)
COc1ccc(C(=O)Nc2nc(-c3ccccc3)c(C(C)=O)s2)c(OC)c1 | 0.7 (≈ 1.83 µM)
Cc1cccc(NC(=O)CCOc2ccccc2)c1C | 15.6 (≈ 57.9 µM)

Structure (SMILES) | solubility kinetic [µg/mL]
O=C(O)CCCCCNC(=O)/C=C/c1ccco1 | 26.2 (≈ 104 µM)
COc1cccc(NC(=O)C(=S)NC2CCCCC2)c1 | 1.3 (≈ 4.45 µM)
O=C(COc1ncnc2cc(Cl)ccc12)c1ccccc1 | 3.2 (≈ 10.7 µM)
Cc1ccccc1NC(=O)c1ccccc1-c1ccccc1 | 36.5 (≈ 127 µM)
Cc1cc(C(=O)OCC(=O)NC2(C#N)CCCCC2)c(C)o1 | > 45.7
CCc1ccccc1NC(=O)CSc1nc(C)c(C)o1 | > 43.6
Cc1ccc(C(=O)ONC(=O)c2ccc(Cl)cc2)cc1[N+](=O)[O-] | 46.8 (≈ 140 µM)
O=Nc1ccc(O)c2ncccc12 | > 26.1
c1ccc2c3c([nH]c2c1)CNCC3 | > 25.8
CCOC(=O)c1c(C)nsc1NC(=O)C1CCCCC1 | 8.3 (≈ 28 µM)
O=S(=O)(O)c1ccc(SCc2ccccc2)nc1 | > 42.2
Cc1ccc(NC(=O)CNC(=O)OCc2ccccc2)cc1C | 10.3 (≈ 33 µM)
CCCCC(=O)Nc1ccc(NC(=O)c2cnccn2)cn1 | > 44.9
COc1ccc(OC2CCN(S(=O)(=O)c3ccccc3)CC2)cc1 | 4.8 (≈ 13.8 µM)
COc1ccc(C2=C(c3ccc([N+](=O)[O-])cc3)C(=O)OC2)cc1 | 3.4 (≈ 10.9 µM)
N#Cc1ccc(NC(=S)NC(=O)C2CCCCC2)cc1 | 1.6 (≈ 5.57 µM)
COc1cccc(CNC(=O)COC(=O)c2ccc(Cl)s2)c1 | 1.4 (≈ 4.12 µM)
CC(C)(C)C(=O)N(Cc1ccc(Cl)cc1)c1cnccn1 | > 45.6
C=CCSc1nc(=O)n2ccc(C)cc2n1 | 31.7 (≈ 136 µM)
CN(C(=O)C(Cl)Cl)c1ccc(OC(=O)c2ccco2)cc1 | > 49.2
CC(NC(=O)/C(C#N)=C/c1ccco1)c1ccccc1 (centres undefined) | 38.8 (≈ 146 µM)
CCN(CC)C(=O)C1CCCN(Cc2nc(-c3cnccn3)no2)C1 (centres undefined) | 40.4 (≈ 117 µM)
COc1ccc(/C=C2\SC(N3CCCCC3)=NC2=O)cc1 | 1.3 (≈ 4.3 µM)
COc1ccc(Nc2ncnc3sccc23)c(OC)c1 | 25.1 (≈ 87.4 µM)

Structure (SMILES) | solubility kinetic [µg/mL]
CC(OC(=O)C1CC1)C(=O)Nc1ncc(Cl)cc1Cl (centres undefined) | > 45.5
Cc1ccccc1OCC(=O)NCCCNC(=O)c1ccco1 | 43.9 (≈ 139 µM)
O=C(O)C1CCC(CNS(=O)(=O)c2ccccc2)CC1 (centres undefined) | > 44.6
CCOc1ccc(S(=O)(=O)N(C)CC(=O)NC2CC2)cc1 | > 46.9
CN(CC(=O)Nc1ccccc1Cl)C(=O)COC(=O)c1cccs1 | > 55
N#C/C(=C\c1ccc(Cl)cc1)C(=O)NC1CC1 | 5 (≈ 20.3 µM)
COc1cc2c(cc1OC)CN(C(=O)c1oc3ccccc3c1C)CC2 | 27.2 (≈ 77.4 µM)
CC(C)CCC1(CCNC(=O)c2cccs2)CCOC(C)(C)C1 (centres undefined) | 22.4 (≈ 66.4 µM)
Cc1cccc(C)c1Nc1ncnc2ccccc12.Cl | > 42.9
COc1ccc(Cn2cnc([N+](=O)[O-])c2)cc1[N+](=O)[O-] | > 41.7
CCCN(CC(=O)Nc1cc(C)on1)CC(=O)Nc1ccc(F)c(F)c1F | 44.1 (≈ 115 µM)
CC1CCN(C(=O)COC(=O)c2cccs2)CC1 | > 40.1
Cc1ccc(S(=O)(=O)n2c(C)nc3ccccc32)cc1 | 2.2 (≈ 7.68 µM)
Cc1c(C(=O)N(C)Cc2ccccc2)oc2c(Cl)cccc12 | 8.4 (≈ 26.8 µM)
N#CCSc1nc(-c2ccccc2)nc2ccccc12 | < 0.2
CSc1cccc(NC(=S)NC(=O)CCc2ccccc2)c1 | 0.7 (≈ 2.12 µM)
CCNC(=S)N1CCN(S(=O)(=O)/C=C/c2ccccc2)CC1 | 4.2 (≈ 12.4 µM)
Cn1cc(S(=O)(=O)Nc2ccc(OC(F)(F)F)cc2)c(=O)n(C)c1=O | > 56.9
CCC1(c2ccc(Cl)cc2)NC(=O)N(CC(=O)NC2(C#N)CCCCC2)C1=O (centres undefined) | > 60.4
COc1ccc(NC(=S)NCc2ccc(F)cc2)c(OC)c1 | > 48.1
COc1ccc(C(=O)NC(=S)NC2CCCCC2)cc1 | 4.8 (≈ 16.4 µM)
COc1ccc(C(=O)NCC(=O)OCC(=O)N2CCc3ccccc32)cc1 | 23 (≈ 62.4 µM)
O=C1OC(Nc2nc(-c3ccc(F)cc3)cs2)c2ccccc21 (centres undefined) | 1.9 (≈ 5.82 µM)
O=C(CSc1nc(C2CC2)nc2ccccc12)N1CCCCC1 | 46.9 (≈ 143 µM)

Structure (SMILES) | solubility kinetic [µg/mL]
CCc1cc(=S)n2c([nH]c3ccccc32)c1C#N | 32.6 (≈ 129 µM)
O=C(Nc1cccc(S(=O)(=O)N2CCCC2)c1)c1ccncc1 | 46.9 (≈ 142 µM)
CCCNC(=O)CSc1nc2ccc(OCC)cc2s1 | 7.2 (≈ 23.2 µM)
COc1ccc(NC(=O)C23CC4CC(CC(Cl)(C4)C2)C3)cc1S(=O)(=O)N1CCOCC1 | 3.3 (≈ 7.04 µM)
O=[N+]([O-])c1ccc(N2CCN(c3ccc(F)cc3)CC2)cc1 | 0.3 (≈ 0.996 µM)
Cc1ccc(NS(=O)(=O)c2csc(C(N)=O)c2)cc1C | 18.9 (≈ 60.9 µM)
O=C(NCc1ccc2c(c1)OCO2)c1ccc(Br)cc1 | 3.1 (≈ 9.28 µM)
Cc1ccccc1CC(=O)Nc1ccc2c(c1)CCC2 | < 0.6
CCc1ccccc1NC(=O)CCN1C(=O)C2CC=CCC2C1=O (centres undefined) | > 49
Cc1ccc(OCC(=O)NCCCNC(=O)c2ccccn2)cc1C | 45.4 (≈ 133 µM)
O=[N+]([O-])c1cccc(CN2CCN(c3ncccn3)CC2)c1 | 32.2 (≈ 108 µM)
Cc1cccc(OCCCn2c(=O)oc3ccc(C)cc32)c1 | 3.3 (≈ 11.1 µM)
Cc1ccccc1OCC(=O)Nc1ccncc1 | > 36.3
CCO/C=C1/C(=O)N(c2ccccc2OC)C(=O)c2ccccc21 | > 48.5
O=C1C[C@H](NC(=O)OCc2ccccc2)CO1 | > 35.3
CC(=O)Nc1ccc(/C=C/C(=O)c2ccc3c(c2)OCCO3)cc1 | 5.2 (≈ 16.1 µM)
COc1ccc(-n2c(SCC(N)=O)nnc2-c2ccco2)cc1 | > 49.6
Cc1ccnc(NCc2ccccc2O)c1 | 23 (≈ 107 µM)
CCc1cccc(CC)c1NC(=O)CN1CCc2cc(OC)c(OC)cc2C1 | 38.8 (≈ 101 µM)
O=C(Nc1ccc2[nH]ccc2c1)c1ccc(F)cc1 | > 38.1
Cn1c(=O)n(C)c2cc(NS(=O)(=O)c3ccccc3)ccc21 | 35.5 (≈ 112 µM)
CC(=O)Nc1ccc(NC(=O)COC(=O)[C@@H]2CCCN2C(=O)c2cccs2)cc1 | > 62.3
O=C(COC(=O)CC1CC2CCC1C2)NCc1ccc(Cl)cc1 (centres undefined) | 6.2 (≈ 18.5 µM)
